Structures can show the parent of a compound that is named as a salt.
Legend:
Type in all cases: physicochemical
[1] = oxidation potential E1 by cyclic voltammetry; details: for E1 (V) for XY moiety: Table H, model compound, A and L replaced by alkyl
Outline: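 Compound in 80:20 (v/v) acetonitrile/water with 0.1M lithium perchlorate, nitrogen-purged 10 minutes. Glassy carbon working, platinum wire counter and saturated calomel reference electrodes; 25° C, sweep rate 0.1 V/sec. E1 is the voltammetric peak potential vs. SCE.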

[2] = fragmentation rate constant kfr by laser flash photolysis; details: Table H; model compound, A and L replaced by alkyl
Outline: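 DCA excited by laser in presence of biphenyl and ca. 10^-2 M donor generates X-Y radical cation; its decay was monitored at mostly 470-530 nm. Run in acetonitrile with 20% water, mostly at room temperature, some rates extrapolated from temperature dependence; oxygen purging used for decays below 10^6 s^-1.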

[3] = oxidation potential E2 of radical X by laser flash photolysis; details: Table H; model compound, A and L replaced by alkyl
Outline: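 Radical X· generated by fragmentation of X-Y·+, formed via 410 nm laser-excited cyanoanthracene (ca. 2×10^-5–10^-4 M) with biphenyl (ca. 0.1 M) cosensitiser and X-Y (ca. 10^-3 M) in acetonitrile or 80:20 acetonitrile/water. E2 bracketed by observing second-acceptor reduction (DCA −0.91 V, TriCA −0.67 V, TCA −0.44 V) by transient absorption near 705–715 nm.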

Structure (SMILES): CCSCCN(c1ccc(Cl)cc1)C(C)C(=O)O (stereo not drawn) [Compound S-12, N-(4-Chlorophenyl)-N-(2-thioethyl-ethyl)alanine sodium salt]
- E1 (V) for XY moiety [1]: 0.40 V
- E1 (V) ([1]; Table IV): 0.51 V
- E1 (V) ([1]; Table XI): 0.51 V
- kfr (s^-1) for XY moiety [2]: > 2e+07 s⁻¹
- E2 (V) for XY moiety [3]: < -0.9 V

Structure (SMILES): CCSCCN(c1ccccc1)C(CC(=O)O)C(=O)O (stereo not drawn) [Compound S-14]
- E1 (V) for XY moiety [1]: 0.48 V
- E1 (V) ([1]; Table IX): 0.51 V
- E1 (V) ([1]; Table XI): 0.51 V
- kfr (s^-1) for XY moiety [2]: > 2e+07 s⁻¹
- E2 (V) for XY moiety [3]: < -0.9 V

Structure (SMILES): CCSCCN(c1ccccc1)C(C)C(=O)O (stereo not drawn) [Compound S-9, N-(Phenyl)-N-(2-thioethyl-ethyl)alanine sodium salt]
- E1 (V) for XY moiety [1]: 0.43 V
- E1 (V) ([1]; Table III): 0.43 V
- E1 (V) ([1]; Table IV): 0.43 V
- E1 (V) ([1]; Table X): 0.43 V
- kfr (s^-1) for XY moiety [2]: > 2e+07 s⁻¹
- E2 (V) for XY moiety [3]: < -0.9 V

Structure (SMILES): CCSCCN(c1ccc(C(=O)O)cc1)C(C)C(=O)O (stereo not drawn) [Compound S-11]
- E1 (V) for XY moiety [1]: 0.54 V
- E1 (V) ([1]; Table IV): 0.55 V
- E1 (V) ([1]; Table IX): 0.54 V
- E1 (V) ([1]; Table XI): 0.54 V
- kfr (s^-1) for XY moiety [2]: > 2e+07 s⁻¹
- E2 (V) for XY moiety [3]: < -0.9 V

Structure (SMILES): CCSCCN(c1ccc(C)cc1)[C@@H](C)C(=O)[O-].[Na+] [Compound S-3, N-(4-Methylphenyl)-N-(2-ethylthio-ethyl)alanine sodium salt]
- E1 (V) for XY moiety [1]: 0.34 V
- E1 (V) ([1]; Table II): 0.47 V
- E1 (V) ([1]; Table III): 0.38 V
- E1 (V) ([1]; Table X): 0.38 V
- kfr (s^-1) for XY moiety [2]: 6e+07 s⁻¹
- E2 (V) for XY moiety [3]: < -0.9 V

Structure (SMILES): CCSCCN(c1ccc(C)cc1)C(CC(=O)O)C(=O)O (stereo not drawn) [Compound S-8]
- E1 (V) for XY moiety [1]: 0.38 V
- E1 (V) ([1]; Table III): 0.45 V
- E1 (V) ([1]; Table X): 0.45 V
- kfr (s^-1) for XY moiety [2]: 1.3e+07 s⁻¹
- E2 (V) for XY moiety [3]: < -0.9 V

Structure (SMILES): Cc1ccc(N(CCC(=O)Nc2cccc(-n3nnnc3S)c2)C(C)C(=O)O)cc1 (stereo not drawn) [PMT-1]
- E1 (V) for XY moiety [1]: 0.34 V
- kfr (s^-1) for XY moiety [2]: > 2e+07 s⁻¹
- E2 (V) for XY moiety [3]: < -0.9 V

Structure (SMILES): CCSCCN(c1cccc(C(N)=O)c1)C(C)C(=O)O (stereo not drawn) [Compound S-13]
- E1 (V) for XY moiety [1]: 0.52 V
- E1 (V) ([1]; Table IV): 0.53 V
- E1 (V) ([1]; Table IX): 0.53 V
- E1 (V) ([1]; Table XI): 0.53 V
- kfr (s^-1) for XY moiety [2]: > 2e+07 s⁻¹
- E2 (V) for XY moiety [3]: < -0.9 V

Structure (SMILES): CC(C(=O)O)N(CCC(=O)Nc1cccc(-n2nnnc2S)c1)c1ccccc1 (stereo not drawn) [PMT-2]
- E1 (V) for XY moiety [1]: 0.43 V
- kfr (s^-1) for XY moiety [2]: > 2e+07 s⁻¹
- E2 (V) for XY moiety [3]: < -0.9 V

Reference: patent US5747235A, “Silver halide light sensitive emulsion layer having enhanced photographic sensitivity” (Eastman Kodak Company, priority 1996, dated 1998)
